From publication PMC6694155, “PTPσ inhibitors promote hematopoietic stem cell regeneration” (Nature Communications, 2019)
Several values for one entry are separate records, joined by “and”; a condition that tells them apart may be missing. Equal values may be shown once.

Key:
[1] = tested on: BM KSL cells; donor CD45.2+ cells; assay: In vivo BrdU incorporation analysis; set-up: species or system mouse
Procedure: For BrdU incorporation analysis in BM KSL cells in vivo, adult C57Bl/6 mice were irradiated with 750 cGy TBI and treated with 5 mg/kg DJ001 or vehicle daily from day + 1 to day + 10. On day + 10, mice were injected intraperitoneally with 2 mg BrdU (BD Biosciences). Sixteen hours later, BM cells were collected and stained with anti-BrdU FITC (BD Biosciences, #557891, 1:50), APC-Cy7-conjugated anti-Sca1 (BD Biosciences, #560654, 1:100), PE-conjugated anti-c-kit (BD Biosciences, #553355, 1:100), and V450 lineage cocktail (BD Biosciences, #561301, 1:10). We repeated this BrdU incorporation analysis on donor CD45.2^+ cells at day + 7 and day + 21 following competitive transplantation into recipient CD45.1^+ mice.

[2] = target: T1, PTPMEG1 (Megakaryocyte Protein-Tyrosine Phosphatase 1) (Homo sapiens, UniProt P29074); assay: PhosphataseProfiler screen: PTPMEG1; type: biochemical; conditions: replicates
T1 construct: purchased Eurofins Pharma Discovery Services UK
T1 sequence (P29074 whole entry): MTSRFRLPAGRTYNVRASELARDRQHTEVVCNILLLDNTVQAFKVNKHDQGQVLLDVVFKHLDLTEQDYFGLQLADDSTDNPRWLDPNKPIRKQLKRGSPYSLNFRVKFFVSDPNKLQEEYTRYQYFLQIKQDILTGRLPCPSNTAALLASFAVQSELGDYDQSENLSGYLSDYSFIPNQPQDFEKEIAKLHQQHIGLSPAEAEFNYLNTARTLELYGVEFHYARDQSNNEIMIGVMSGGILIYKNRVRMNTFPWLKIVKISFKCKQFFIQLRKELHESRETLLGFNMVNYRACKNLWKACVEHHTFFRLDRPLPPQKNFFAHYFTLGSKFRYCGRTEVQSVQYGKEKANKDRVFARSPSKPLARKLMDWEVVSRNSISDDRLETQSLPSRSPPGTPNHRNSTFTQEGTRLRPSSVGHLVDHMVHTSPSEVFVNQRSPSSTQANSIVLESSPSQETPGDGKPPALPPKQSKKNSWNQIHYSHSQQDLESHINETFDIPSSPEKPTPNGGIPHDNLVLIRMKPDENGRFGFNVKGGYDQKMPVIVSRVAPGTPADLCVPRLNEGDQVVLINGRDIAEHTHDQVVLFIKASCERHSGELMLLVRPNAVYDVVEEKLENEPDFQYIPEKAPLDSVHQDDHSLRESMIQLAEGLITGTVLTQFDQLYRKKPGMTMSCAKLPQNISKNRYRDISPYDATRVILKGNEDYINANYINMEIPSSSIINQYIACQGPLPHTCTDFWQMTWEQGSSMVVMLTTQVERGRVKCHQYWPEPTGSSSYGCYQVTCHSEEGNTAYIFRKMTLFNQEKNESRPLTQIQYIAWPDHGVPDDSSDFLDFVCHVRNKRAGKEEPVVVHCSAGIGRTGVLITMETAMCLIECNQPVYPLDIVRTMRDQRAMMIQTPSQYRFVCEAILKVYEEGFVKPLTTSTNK
Procedure: (§1) Compound DJ001 was evaluated in a PhosphataseProfiler™ screen at 10 μM and 1 μM (2.7 μg/mL and 0.27 μg/mL) concentrations at Eurofins Pharma Discovery Services UK (Study number UK022-0004033) against a panel of 21 Phosphatases. In each experiment, the respective reference antagonist/agonist was tested directly with DJ001 and the data were compared with historical values determined at Eurofins. DJ001 compound inhibition was calculated as percentage inhibition of the enzymatic activity compared with control.

[3] = target: T2, DUSP22 (Dual Specificity Phosphatase 22) (Homo sapiens, UniProt Q9NRW4); assay: PhosphataseProfiler screen: DUSP22; type: biochemical; conditions: replicates
T2 construct: purchased Eurofins Pharma Discovery Services UK
T2 sequence (Q9NRW4 whole entry, species assumed): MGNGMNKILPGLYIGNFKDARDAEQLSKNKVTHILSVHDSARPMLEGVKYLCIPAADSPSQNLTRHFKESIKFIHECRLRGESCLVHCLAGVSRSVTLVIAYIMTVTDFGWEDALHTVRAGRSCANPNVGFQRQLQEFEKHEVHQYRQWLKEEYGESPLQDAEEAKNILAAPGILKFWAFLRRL
Procedure: as §1

BM KSL cells [4] = assay: Transendothelial migration assay; type: cell-based, mouse
Procedure: For the transendothelial migration assay,VeraVec^TM mouse spleen ECs (Angiocrine Biosciences) were cultured to confluence in […] pore transwells (Corning Incorporated). Transwells were then seeded with 50,000 sorted BM KSL cells in IMDM with 10% FBS, 1% pen-strep, 20 ng/mL TPO, 125 ng/mL SCF, and 50 ng/mL Flt3 ligand with or without 1 µg/mL of DJ001. SDF-1, 500 ng/mL (R&D Systems), was added to the bottom chamber of the transwell. At 18 h post incubation, cells in the bottom chamber were collected and cell counts were performed.

[5] = target: T3, PTPMEG2 (Protein Tyrosine Phosphatase Non-Receptor Type 9) (Homo sapiens, UniProt P43378); assay: PhosphataseProfiler screen: PTPMEG2; type: biochemical; conditions: replicates
T3 construct: purchased Eurofins Pharma Discovery Services UK
T3 sequence (P43378 whole entry): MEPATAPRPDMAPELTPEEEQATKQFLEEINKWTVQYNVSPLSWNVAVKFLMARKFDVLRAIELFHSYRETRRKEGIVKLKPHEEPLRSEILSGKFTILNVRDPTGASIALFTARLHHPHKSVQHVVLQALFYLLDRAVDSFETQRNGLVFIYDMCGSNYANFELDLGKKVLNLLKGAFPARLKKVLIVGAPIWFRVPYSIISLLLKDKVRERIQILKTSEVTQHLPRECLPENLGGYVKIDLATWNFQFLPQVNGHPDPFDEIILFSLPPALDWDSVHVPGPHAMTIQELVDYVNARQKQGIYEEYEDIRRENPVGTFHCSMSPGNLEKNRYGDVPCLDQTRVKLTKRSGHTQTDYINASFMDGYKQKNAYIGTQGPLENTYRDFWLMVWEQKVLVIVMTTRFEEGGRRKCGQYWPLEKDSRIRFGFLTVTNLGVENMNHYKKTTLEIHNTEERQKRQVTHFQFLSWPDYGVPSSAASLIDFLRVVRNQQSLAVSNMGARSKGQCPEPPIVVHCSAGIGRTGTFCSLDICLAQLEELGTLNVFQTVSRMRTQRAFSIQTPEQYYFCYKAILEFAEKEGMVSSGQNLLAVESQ
Procedure: as §1

[6] = target: T4, TCPTP (T-Cell Protein-Tyrosine Phosphatase) (Homo sapiens, UniProt P17706); assay: PhosphataseProfiler screen: TCPTP; type: biochemical; conditions: replicates
T4 construct: purchased Eurofins Pharma Discovery Services UK
T4 sequence (P17706 whole entry, species assumed): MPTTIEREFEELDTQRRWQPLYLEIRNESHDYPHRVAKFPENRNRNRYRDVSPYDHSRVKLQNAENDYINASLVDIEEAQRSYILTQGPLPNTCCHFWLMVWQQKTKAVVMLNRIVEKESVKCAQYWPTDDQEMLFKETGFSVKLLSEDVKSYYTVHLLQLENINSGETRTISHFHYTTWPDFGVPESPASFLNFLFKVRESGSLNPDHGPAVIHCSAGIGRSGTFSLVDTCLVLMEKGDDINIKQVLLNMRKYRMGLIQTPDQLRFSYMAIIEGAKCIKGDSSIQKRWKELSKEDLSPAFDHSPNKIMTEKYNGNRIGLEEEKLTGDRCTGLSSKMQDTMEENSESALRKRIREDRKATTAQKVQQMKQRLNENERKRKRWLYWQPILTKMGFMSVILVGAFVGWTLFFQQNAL
Procedure: as §1

[7] = tested on: DsRed+ BM sca-1+lin− cells in irradiated C57BL/6 mice; assay: Homing study; type: in vivo, mouse
Procedure: Sorted BM sca-1^+lin^− cells (100,000) from DsRed^+ mice were transplanted into lethally irradiated (950 cGy) recipient C57BL/6 mice followed by subcutaneous treatment of 5 mg/kg DJ001 or vehicle × 1 dose. At 18 h post transplantation, BM cells were collected from the recipient mice and were analyzed for percentages of DsRed^+ cells in the BM[17].

BM KSL cells [8] = assay: CFC assay, 3 day culture of non-irradiated BM KSL cells; type: cell-based, mouse; conditions: for Supplementary Figure 3b: BFU-E / Supplementary Figure 3b: CFU-GEMM / Supplementary Figure 3b: CFU-GM: non-irradiated BM KSL cells, replicates
Procedure: CFC assays (colony-forming unit-granulocyte monocyte), burst-forming unit-erythroid, and CFU-GEMM were performed using MethoCult GF M3434 (Stemcell Technologies)[6]. For all in vitro assays, BM CD34^−KSL cells, KSL cells, and Lin^− cells were cultured in TSF media (IMDM, 10% FBS, 1% pen-strep, 20 ng/mL recombinant mouse TPO, 125 ng/mL recombinant mouse SCF, 50 ng/mL recombinant mouse Flt3 ligand). Recombinant mouse SCF, Flt3 ligand, and TPO were purchased from R&D Systems. For competitive repopulation assays, BM cells were isolated from donor 10–12-week-old female CD45.2^+ mice. Recipient 10-week-old female CD45.1^+ B6.SJL mice were irradiated with 950 cGy TBI using a Cs137 irradiator and donor BM cells were administered via tail vein injection along with a competing dose of 1 × 10^5 non-irradiated host BM cells. Multilineage donor hematopoietic cell engraftment was measured in the PB by flow cytometry.

[9] = tested on: RAC1-GTP in BM lin− cells; assay: G-LISA activation assay: RAC1-GTP; type: cell-based, mouse; conditions: for RAC1-GTP level (G-LISA): Supplementary Figure 7c
Procedure: The RAC1-GTP, RHOA-GTP, and CDC42-GTP activation levels in BM lin^− cells were measured using a colorimetric-based RAC1-, RHOA-, and CDC42 G-LISA Activation Assay Kit (Cytoskeleton, Inc.). BM cells from femurs and tibias were isolated from 12-week-old Ptprs^+/+ and Ptprs^−/− mice. Cells were then depleted of lineage-committed cells with Direct Lineage Cell Depletion Kit (Miltenyi Biotec, #130-110-470; 1:5). The BM lin^− cell fraction was then serum starved in Iscove’s modified Dulbecco’s medium (IMDM) and treated with either vehicle (equal amount of DMSO) or 1 μg/mL DJ001 for 10 min at 37 °C. After treatment, cells were washed with ice-cold PBS and then placed in lysis buffer supplemented with protease inhibitor. Lysate concentrations were measured by Pierce^TM BCA Protein Assay Kit (ThermoFisher Scientific). G-LISA was performed according to the manufacturer’s instructions. Briefly, 12.5 μg of lysates was added to a GTP-binding protein pre-coated plate and active RAC1-GTP, RHOA-GTP, or CDC42-GTP levels were measured at 490 nm using a PowerWave XS2 microplate reader (BioTek).

For O=C(/C=C\Nc1cccc([N+](=O)[O-])c1)c1ccccc1 [DJ001, (Z)-3-((3-nitrophenyl)amino)-1-phenylprop-2-en-1-one], the BrdU incorporation ([1]; Supplementary Figure 7i) was 36.54 and 44.684 and 44.262 and 33.456, the “BrdU incorporation in donor CD45.2+ cells, DJ001 vs vehicle group” value ([1]; day +7 and day +21 following competitive transplantation) was “no difference in BrdU incorporation” and the “BrdU incorporation in BM KSL cells vs vehicle” value ([1]; day +10 following 750 cGy TBI) was “increased bromodeoxyuridine (BrdU) incorporation”. For the same molecule, the “Supplementary Figure 1: PTP MEG1 activity” value ([2]; 2.7 μg/mL DJ001) was 100 and 92 and 105, the “Supplementary Figure 1: PTP MEG1 activity” value ([2]; 0.27 g/mL DJ001) was 103 and 114 and 105 and the “Supplementary Figure 1: DUSP22 activity” value ([3]; 0.27 μg/mL DJ001) was 107 and 96 (2×). For the same molecule, the “Supplementary Figure 1: DUSP22 activity” value ([3]; 2.7 μg/mL DJ001) was 98 and 109 and 100, the “in vitro migration of BM KSL cells through EC monolayers” value (BM KSL cells [4]; 1 µg/mL DJ001, 18 h) was “did not alter the in vitro migration” and the “number of cells within the lower chambers, per replicate (Supplementary Figure 8a)” value (BM KSL cells [4]; 1 µg/ml DJ001, 18 hours) was 17.5 and 8.74 and 19.1 and 21.8 and 10.9. For the same molecule, the “Supplementary Figure 1: PTP MEG2 activity” value ([5]; 0.27 μg/mL DJ001) was 94 (2×) and 103, the “Supplementary Figure 1: PTP MEG2 activity” value ([5]; 2.7 μg/mL DJ001) was 91 and 71 and 95 and the “Supplementary Figure 1: TCPTP activity” value ([6]; 2.7 μg/mL DJ001) was 91 and 103 and 88. For the same molecule, the “Supplementary Figure 1: TCPTP activity” value ([6]; 0.27 g/mL DJ001) was 97 and 96 and 99, the “homing of transplanted BM sca-1+lin− cells” value ([7]; 18 h, irradiated C57BL/6 mice) was “no effect on homing” and the “percentage of donor DsRed+ cells in the BM, per mouse (Supplementary Figure 8b)” value ([7]; 18 hours, 5 mg/kg DJ001 subcutaneously, 5 mg/kg) was 0.19% and 0.183% and 0.207%. The “Supplementary Figure 3b: BFU-E” value (BM KSL cells [8]; 10 ng/mL) was 0 (4×) and 1 and 2, the “Supplementary Figure 3b: CFU-GEMM” value (BM KSL cells [8]; 10 ng/mL) was 2 and 4 (2×) and 7 (2×) and 3 and the “Supplementary Figure 3b: CFU-GM” value (BM KSL cells [8]; 10 ng/mL) was 21 and 22 and 19 and 15 (2×) and 18. For the same molecule, the “Supplementary Figure 3b: BFU-E” value (BM KSL cells [8]; 100 ng/mL) was 1 (3×) and 3 and 2, the “Supplementary Figure 3b: CFU-GEMM” value (BM KSL cells [8]; 100 ng/mL) was 8 (2×) and 7 and 6 and 5 and the “Supplementary Figure 3b: CFU-GM” value (BM KSL cells [8]; 100 ng/mL) was 23 and 20 and 24 (2×) and 21. For the same molecule, the “Supplementary Figure 3b: BFU-E” value (BM KSL cells [8]; 1000 ng/mL) was 3 and 2 (3×) and 1, the “Supplementary Figure 3b: CFU-GEMM” value (BM KSL cells [8]; 1000 ng/mL) was 6 (3×) and 8 and 9 and the “Supplementary Figure 3b: CFU-GM” value (BM KSL cells [8]; 1000 ng/mL) was 27 and 30 and 28 (2×) and 25. For the same molecule, the “Supplementary Figure 3b: BFU-E” value (BM KSL cells [8]; 5 µg/mL) was 2 and 4 and 1 (3×) and 0, the “Supplementary Figure 3b: BFU-E” value (BM KSL cells [8]; 10 µg/mL) was 3 (2×) and 2 (2×) and 1 (2×) and the “Supplementary Figure 3b: CFU-GEMM” value (BM KSL cells [8]; 10 µg/mL) was 3 (3×) and 2 (2×) and 1. For the same molecule, the “Supplementary Figure 3b: CFU-GM” value (BM KSL cells [8]; 10 µg/mL) was 14 (2×) and 17 and 16 and 15 and 12, the “number of BM CFCs in 3 day culture of BM KSL cells” value (BM KSL cells [8]; 10 – 100 ng/ml DJ001) was “significantly increased the number of BM CFCs” and the “numbers of CFCs vs control” value (BM KSL cells [8]; 3 day culture of non-irradiated BM KSL cells) was “significantly increased the numbers of colony forming cells (CFCs)”. The “Supplementary Figure 3b: CFU-GEMM” value (BM KSL cells [8]) was 3 (4×) and 6 and 4 and the “Supplementary Figure 3b: CFU-GM” value (BM KSL cells [8]) was 22 and 21 and 23 and 20 and 19 and 18.

For O=C(/C=C\Nc1cc(F)cc(F)c1)c1ccccc1 [DJ009, (Z)-3-((3,5-difluorophenyl)amino)-1-phenylprop-2-en-1-one], the RAC1 activation ([9]; BM cells from Ptprs−/− mice, 1 μg/ml DJ001, 10 min) was “did not induce RAC1 activation”, the “RAC1-GTP level (G-LISA)” value ([9]; Ptprs+/+ cells) was 0.459 and 0.438 and 0.567 and the “RAC1-GTP level (G-LISA)” value ([9]; Ptprs-/- cells) was 0.402 and 0.353 and 0.351 and 0.292.
